Experimental data: patent US12617756B2 (ABIVAX, priority 2019, dated 2026)

system: RSV A2; experiment: Screening for RSV inhibition using Viral ToxGlo assay (cytopathic effect inhibition in HEp-2 cells); assay type: cell-based, Respiratory Syncytial Virus (RSV); conditions: RSV A2 in HEp-2 cells, MOI 0.5, 72h p.i., cytopathic effect inhibition relative to virus control, Viral ToxGlo luminescence
Summary of the method: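 HEp-2 cells in 2% FBS medium infected with RSV A2 right after compound addition (max 1% DMSO), uninfected wells used for cytotoxicity. After 72 h p.i. at 37 °C/5% CO2, cell viability read by Viral ToxGlo luminescence as measure of cytopathic effect.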

SMILES | EC50 [nM]
O=C(N=C1NCCN1)c1cc(F)c(Nc2cccc(C3=NCCN3)c2)c(C2CC2)c1 [Compound 169, 3-cyclopropyl-4-{[3-(4,5-dihydro-1H-imidazol-2-yl)phenyl]amino}-5-fluoro-N-(imidazolidin-2-ylidene)benzamide] | 13.6

same assay, conditions: human respiratory syncytial virus; RSV A2 in HEp-2 cells, MOI 0.5, 72h p.i., cytopathic effect inhibition relative to virus control, Viral ToxGlo luminescence

SMILES | EC50 [nM]
O=C(N=C1NCCN1)c1cc(F)c(Nc2nccc(C(=O)N3CCOCC3)c2F)c(C2CC2)c1 [Compound 156, 3-cyclopropyl-5-fluoro-4-{[3-fluoro-4-(morpholine-4-carbonyl)pyridin-2-yl]amino}-N-[imidazolidin-2-ylidene]benzamide] | 40.7
CC1(NC(=O)c2nccc(Nc3c(F)cc(C(=O)N=C4NCCN4)cc3C3CC3)c2Cl)CC1 [Compound 157, 3-chloro-4-[(2-cyclopropyl-6-fluoro-4-{[imidazolidin-2-ylidene]carbamoyl}phenyl)amino]-N-(1-methylcyclopropyl)pyridine-2-carboxamide] | 26.6
O=C(N=C1NCCN1)c1cc(F)c(Nc2cccc(C(=O)N3CCOCC3)c2F)c(C2CC2)c1 [Compound 158, 3-cyclopropyl-5-fluoro-4-{[2-fluoro-3-(morpholine-4-carbonyl)phenyl]amino}-N—[imidazolidin-2-ylidene]benzamide] | 6.8
O=C(N=C1NCCN1)c1cc(F)c(Nc2nccc(C(=O)N3C[C@@H]4C[C@H]3CO4)c2F)c(C2CC2)c1 [Compound 159, 3-cyclopropyl-5-fluoro-4-({3-fluoro-4-[(1S,4S)-2-oxa-5-azabicyclo[2.2.1]heptane-5-carbonyl]pyridin-2-yl}amino)-N—[imidazolidin-2-ylidene]benzamide] | 225
CC(C)=CCn1nnc(-c2cccc(Nc3ccc(C(=O)/N=C4\NCCN4C)cc3C3CC3)c2)n1 [Compound 160, 3-cyclopropyl-4-({3-[2-(3-methylbut-2-en-1-yl)-2H-1,2,3,4-tetrazol-5-yl]phenyl}amino)-N-[1-methylimidazolidin-2-ylidene]benzamide] | 545
CC1(C(=O)Nc2cccc(Nc3ccc(C(=O)N=C4NCCN4)cc3C3CC3)c2)COC1 [Compound 161, N-{3-[(2-cyclopropyl-4-{[imidazolidin-2-ylidene]carbamoyl}phenyl)amino]phenyl}-3-methyloxetane-3-carboxamide] | 690
CC1(C(=O)Nc2cccc(Nc3c(F)cc(C(=O)N=C4NCCN4)cc3C3CC3)c2)COC1 [Compound 163, N-{3-[(2-cyclopropyl-6-fluoro-4-{[imidazolidin-2-ylidene]carbamoyl}phenyl)amino]phenyl}-3-methyloxetane-3-carboxamide] | 35
O=C(N=C1NCCN1)c1cc(F)c(Nc2nccc(C(=O)NC34CC(C3)C4)c2Cl)c(C2CC2)c1 [Compound 164] | 3.8
CC1(NC(=O)c2cccc(Nc3ccc(C(=O)N=C4NCCN4)cc3C3CC3)c2Cl)CC1 [Compound 167, 4-({2-chloro-3-[(1-methylcyclopropyl)carbamoyl]phenyl}amino)-3-cyclopropyl-N-[imidazolidin-2-ylidene]benzamide] | 17.8
